Results from patent US20240025885A1, “TRIAZINE DERIVATIVES AND METHODS OF USE THEREOF” (priority 2022, published 2024).
Where two headings read alike, the source gives them in different places.

What was measured:
[1] = test system: SARS-CoV-2 Omicron hCoV-19/USA/MD HP20874/2021 (B.1.1.529) strain; experiment: In vitro antiviral activity against SARS-CoV-2 Omicron B.1.1.529 in Calu-3 cells (NP ELISA, percent virus reduction); type: cell-based; settings: Severe acute respiratory syndrome coronavirus 2, Calu-3, 48 h
[2] = test system: hCoV-19/USA/Chicago IL/2022 (BA.5.2); experiment: In vitro antiviral activity against SARS-CoV-2 BA.5.2 in Calu-3 cells (NP ELISA, percent virus reduction); type: cell-based; settings: Severe acute respiratory syndrome coronavirus 2, Calu-3, 48 h
in vivo [3] = experiment: in vivo
Experimental: At Model Pharmacokinetic Properties Testing
(§1) Oral administration: the compound was administered with a volume ratio of Solutol:PEG400:Tween80:Saline=10:40:2:48 at a dose of 10 mg/kg. blood was taken continuously from the fundus venous plexus at 0.25 h, 0.5 h, 1 h, 2 h, 4 h, 8 h, 10 h, 12 h, and 24 h after administration in EP tubes containing EDTA, centrifuged at 8000 rpm/min for 5 min and then the upper layer of plasma was frozen at −80° C. and stored for LC-MS/MS analysis.
(§2) Intravenous administration: the compound was administered with a volume ratio of 10% DMSO/30% PEG400/60% water at a dose of 1 mg/kg). At 0.0833 h, 0.25 h, 0.5 h, 1 h, 2 h, 4 h, 8 h, 12 h and 24 h after drug administration, blood was serially collected from the fundus venous plexus in EP tubes containing EDTA, centrifuged at 8000 rpm/min for 5 min and then the upper layer of plasma was frozen at −80° C. and stored for LC-MS/MS analysis.
The pharmacokinetic parameters were calculated using WinNonlin software base on the blood concentration-time data obtained from the tests.

in vivo [4] = settings: crab-eating monkey, plasma
Experimental: Crab-Eating Monkey Pharmacokinetic Properties Testing
as §1, with “of 2” for “of 10”, “mg/kg. The” for “mg/kg.”, “continuously” for “continuously from the fundus venous plexus”, “12 h” for “12 h,”, “after drug” for “after”, “5 min,” for “5 min”
as §2, with “with” for “with a volume ratio of”, “The blood was taken continuously at” for “At”, “administration” for “administration, blood was serially collected from the fundus venous plexus”
The pharmacokinetic parameters were calculated from the blood concentration-time data obtained from the tests using WinNonlin software.

[5] = intravenous, 1 mg/kg, read-out: Intravenous injection AUClast
[6] = oral, 2 mg/kg, read-out: Oral AUClast

| SMILES | EC50 [1] | EC50 [2] | AUC(0-t) (in vivo [3]; iv, 1 mg/kg) | AUC(0-t) (in vivo [3]; po, 10 mg/kg) | AUC(0-t) (in vivo [4]; [5]) | AUC(0-t) (in vivo [4]; [6]) |
| --- | --- | --- | --- | --- | --- | --- |
| [2H]C([2H])([2H])n1cc2cc(Nc3nc(=O)n(Cc4cscn4)c(=O)n3Cc3cc(F)c(F)cc3F)c(Cl)cc2n1 [Compound 16] | 16 nM | 22 nM | 7040 ng·h/mL | 139000 ng·h/mL | 3680 ng·h/mL | 10100 ng·h/mL |
| [2H]C([2H])([2H])n1cc2cc(Nc3nc(=O)n(Cc4ccon4)c(=O)n3Cc3cc(F)c(F)cc3F)c(Cl)cc2n1 [Compound 17] | 30 nM | 16 nM | 25400 ng·h/mL | 189000 ng·h/mL | 41000 ng·h/mL | 64300 ng·h/mL |
| [2H]C([2H])([2H])n1cc2cc(Nc3nc(=O)n(Cc4cocn4)c(=O)n3Cc3cc(F)c(F)cc3F)c(Cl)cc2n1 [Compound 18] | – | – | – | – | 4890 ng·h/mL | 10400 ng·h/mL |
| Cn1cc2cc(Nc3nc(=O)n(Cc4cocn4)c(=O)n3Cc3cc(F)c(F)cc3F)c(Cl)cc2n1 [Compound 26] | – | – | 7790 ng·h/mL | 14100 ng·h/mL | – | – |
| [2H]C([2H])([2H])n1cc2cc(Nc3nc(=O)n(Cc4cscn4)c(=O)n3Cc3cc(F)c(F)c(F)c3)c(Cl)cc2n1 [Compound 40] | 23 nM | 40 nM | 9880 ng·h/mL | 134000 ng·h/mL | 36500 ng·h/mL | 62400 ng·h/mL |
| [2H]C([2H])([2H])n1cc2cc(Nc3nc(=O)n(Cc4ccon4)c(=O)n3Cc3cc(F)c(F)c(F)c3)c(Cl)cc2n1 [Compound 41] | 31 nM | 33 nM | 26500 ng·h/mL | 234000 ng·h/mL | 40600 ng·h/mL | 63300 ng·h/mL |
| O=c1nc(Nc2cc3cn(CCO)nc3cc2Cl)n(Cc2cc(F)c(F)cc2F)c(=O)n1Cc1ccon1 [Compound 70] | 18 nM | 21 nM | – | – | 4870 ng·h/mL | 9880 ng·h/mL |
| Cn1cc2cc(Nc3nc(=O)n(Cc4nccs4)c(=O)n3Cc3cc(F)c(F)cc3F)c(Cl)cc2n1 [Compound 71] | 34 nM | 45 nM | – | – | – | – |
| Cn1cc2cc(Nc3nc(=O)n(Cc4ncsn4)c(=O)n3Cc3cc(F)c(F)cc3F)c(Cl)cc2n1 [Compound 78] | 67 nM | 59 nM | – | – | – | – |
| O=c1nc(Nc2cc3cn(CCO)nc3cc2Cl)n(Cc2cc(F)c(F)cc2F)c(=O)n1Cc1cscn1 [Compound 97] | – | – | 5670 ng·h/mL | 7660 ng·h/mL | – | – |
| [2H]c1c2cc(Nc3nc(=O)n(Cc4ccon4)c(=O)n3Cc3cc(F)c(F)cc3F)c(Cl)cc2nn1C [Compound 107] | – | – | 21400 ng·h/mL | 209000 ng·h/mL | – | – |
